Structures can show the parent of a compound that is named as a salt. Where two headings read alike, the source gives them in different places. Marks after values point to notes of the source that are not given here.
Key:
[1] = system: Vero cell; experiment: Cytotoxicity test on Vero cells (MTT); type: cell-based, African green monkey; settings: 72 h, Probit regression
Method: Cytotoxicity test: drugs are diluted according to the concentrations indicated in Table 1 for the determination of cytotoxicity.
The aforementioned drugs which are diluted with a maintenance solution (DMEM containing 2% or fetal bovine serum) to different concentrations are dropwise added to the Vero monolayer cell, each well is 0.2ml, there are 6 duplicate wells for each concentration, 6 wells for normal control (normal control group without adding drugs) and 6 wells for blank control (culture medium) are additionally provided, those are placed in an 5% CO2 incubator at 37° C. for culturing, observing CPE with an inverted microscope every day and recording. After 72 h, 20 μL (5 mg·mL^−1) of MTT solution is added in each well, and continues to be incubated for 4 h, the culture broth in each well is sucked and discarded, 100 μL of DMSO is added in each well, and is shaken for 5 min, measuring the OD value at 492 nm to calculate cell survival rate. In SPSS 18.0 statistical software, the cell survival rate is subjected to Probit regression analysis to calculate the maximum non-toxic concentration (TC0) and half toxic concentration (TC50) of the drug on the Vero cell.

[2] = system: Adenovirus (AdV); experiment: Impact of the drug on virus-induced cytopathy (CPE, MTT), ADV; type: cell-based; settings: Vero cells, 100TCID50, drug at about the maximum non-toxic concentration, 72 h
[3] = system: Enterovirus EV71; experiment: Impact of the drug on virus-induced cytopathy (CPE, MTT), EV71; type: cell-based; settings: Vero cells, 100TCID50, drug at about the maximum non-toxic concentration, 72 h
[4] = system: Coxsackievirus B3 (CVB3); experiment: Impact of the drug on virus-induced cytopathy (CPE, MTT), CVB3; type: cell-based; settings: Vero cells, 100TCID50, drug at about the maximum non-toxic concentration, 72 h
[5] = Solubility of the isolated solid; settings: water and ethanol
[6] = system: influenza virus infected mice; type: in vivo, Kunming mice; settings: 5 days
[7] = system: parainfluenza virus infected mice; type: in vivo, Kunming mice
[8] = system: influenza virus infected mice; type: in vivo, Kunming mice; settings: lung suspension, 5 days
[9] = system: parainfluenza virus infected mice; type: in vivo, Kunming mice; remark: listed apart in the source
[10] = system: influenza virus pneumonia model mice; experiment: Observation of lung histomorphology, influenza virus pneumonia mice; type: in vivo, Kunming mice; settings: 3.25 mg/kg/d to 13 mg/kg/d, fifth day, HE staining
Method: A degreasing cotton is placed in a 200-300 mL beaker, in which a suitable amount of ether (just for making cotton wet) is added, the beaker containing the degreasing cotton is inverted upside down, the mice are extremely excited when anesthetized therein, and are made to lie on their backs when clearly weak, the mice are infected nasally with 15LD50 influenza virus a .d parainfluenza virus at 0.03 ml/nostril, and the virus suspension is replaced with normal saline in the normal control group.
The administration is performed once a day for five consecutive days. The virus control group is drenched with normal saline of the same volume.
Various mice lungs are respectively taken in the fifth day after treatment; general pathological changes of their viscera are observed by naked eyes and are recorded. The lungs are cleaned by rinsing with normal saline and moisture thereon is sucked up by using filter paper; a portion of the lung is fixed with 10% formaldehyde, paraffin-embedded, sliced and HE-strained; observation and photographing are performed under a microscope.

[11] = system: parainfluenza virus pneumonia model mice; experiment: Observation of lung histomorphology, parainfluenza virus pneumonia mice; type: in vivo, Kunming mice; settings: 3.25 mg/kg/d to 13 mg/kg/d, fifth day, HE staining
[12] = system: Influenza virus; experiment: Impact of the drug on virus-induced cytopathy (CPE, MTT), influenza virus; type: cell-based
[13] = system: Parainfluenza virus; experiment: Impact of the drug on virus-induced cytopathy (CPE, MTT), parainfluenza virus; type: cell-based; settings: Vero cells, 100TCID50, drug at about the maximum non-toxic concentration, 72 h
[14] = system: Coxsackievirus A16 (CoxA16); experiment: Impact of the drug on virus-induced cytopathy (CPE, MTT), CoxA16; type: cell-based; settings: Vero cells, 100TCID50, drug at about the maximum non-toxic concentration, 72 h
[15] = system: Respiratory syncytial virus (RSV); experiment: Impact of the drug on virus-induced cytopathy (CPE, MTT), RSV; type: cell-based; settings: Vero cells, 100TCID50, drug at about the maximum non-toxic concentration, 72 h
[16] = system: Herpes simplex virus type-1 (HSV-1); experiment: Impact of the drug on virus-induced cytopathy (CPE, MTT), HSV-I; type: cell-based; settings: Vero cells, 100TCID50, drug at about the maximum non-toxic concentration, 72 h
[17] = high dosage 13.0 mg/kg/d intragastric
[18] = low dosage 3.25 mg/kg/d intragastric
[19] = parainfluenza virus infected mice, high dosage 13.0 mg/kg/d intragastric, 5 days
[20] = parainfluenza virus infected mice, low dosage 3.25 mg/kg/d intragastric, 5 days

With `COc1ccc([C@H]2OCC3C2CO[C@H]3c2ccc(OC)c(OS(=O)(=O)O)c2)cc1OC.N` (stereo partly shown) the “half toxic concentration (TC50)” value [1] was 555 µg/mL, the “the maximum non-toxic concentration (TC0)” value [1] was 0.105 g/L and the “antiviral effective rate (ER %), ADV” value [2] was 20.88* %. For the same molecule, the “antiviral effective rate (ER %), EV71” value [3] was 35.12%, the “antiviral effective rate (ER %), CVB3” value [4] was 7.10% and the solubility [5] was “soluble in water and ethanol”.

For `COc1ccc([C@H]2OCC3C2CO[C@H]3c2ccc(OC)c(OS(=O)(=O)O)c2)cc1OC` (stereo partly shown) [forsythiaside sodium sulfate], the “half toxic concentration (TC50)” value [1] was 685 µg/mL, the “the maximum non-toxic concentration (TC0)” value [1] was 0.128 g/L and the “antiviral effective rate (ER %), ADV” value [2] was 20.91* %. For the same molecule, the “antiviral effective rate (ER %), EV71” value [3] was 50.21%, the “antiviral effective rate (ER %), CVB3” value [4] was 10.55% and the “Lung index (X ± S)” value [6, 17] was 1.1809 ± .057. The “Lung index inhibition rate (%)” value [6, 17] was 20.73%, the “Lung index (X ± S)” value [6, 18] was 1.344 ± 0.035 and the “Lung index inhibition rate (%)” value [6, 18] was 9.69%. The “Lung index (X ± S)” value ([7]; mouse, in vivo) was 1.303 ± 0.062, the “Lung index inhibition rate (%)” value ([7]; mouse, in vivo) was 18.46% and the “Lung index (X ± S)” value [7, 19] was 1.331 ± 0.073. The “Lung index inhibition rate (%)” value [7, 19] was 16.73%, the “Lung index (X ± S)” value [7, 20] was 1.311 ± 0.049 and the “Lung index inhibition rate (%)” value [7, 20] was 17.96%. The “Hemagglutination titer (InX)” value ([8]; high dosage 13.0 mg/kg/d) was 20.07 ± 0.646, the “Hemagglutination titer (InX)” value ([8]; low dosage 3.25 mg/kg/d) was 23.93 ± 1.392 and the “Hemagglutination titer (InX)” value ([9]; lung suspension, parainfluenza virus infected mice, high dosage 13.0 mg/kg/d, 5 days) was 19.82 ± 0.981. The “Hemagglutination titer (InX)” value ([9]; lung suspension, parainfluenza virus infected mice, low dosage 3.25 mg/kg/d, 5 days) was 23.26 ± 0.991, the “Hemagglutination titer (InX)” value ([9]; mouse, in vivo) was 21.01 ± 0.614 and the “lung histology / pulmonary tissue pathology” value [10] was “significantly improve the pulmonary tissue pathology”. The “lung histology / pulmonary tissue pathology” value [11] was “significantly improve the pulmonary tissue pathology” and the solubility [5] was “soluble in water and ethanol”.

With `CCOC(=O)C1=C[C@@H](OC(CC)CC)[C@H](NC(C)=O)[C@@H](N)C1` [oseltamivir phosphate, Oseltamivir phosphate, reference compound] the “half toxic concentration (TC50)” value [1] was 832 µg/mL, the “the maximum non-toxic concentration (TC0)” value [1] was 0.28 g/L and the “antiviral effective rate (ER %), Influenza virus” value ([12]; Vero cells, 100TCID50, drug at about the maximum non-toxic concentration, 72 h, MTT) was 81.76** %. For the same molecule, the “antiviral effective rate (ER %), Parainfluenza virus” value [13] was 94.52** %, the “antiviral effective rate (ER %), CoxA16” value [14] was 2.95% and the “antiviral effective rate (ER %), RSV” value [15] was 37.60%. For the same molecule, the “antiviral effective rate (ER %), HSV-I” value [16] was 66.56** %, the “antiviral effective rate (ER %), ADV” value [2] was 10.31% and the “antiviral effective rate (ER %), EV71” value [3] was 51.86%. The “antiviral effective rate (ER %), CVB3” value [4] was 1.64%.

With `NC(=O)c1ncn([C@@H]2O[C@H](CO)[C@@H](O)[C@H]2O)n1` [ribavirin, Ribavirin, reference compound] the “antiviral effective rate (ER %), Influenza virus” value [12] was 57.49** %, the “antiviral effective rate (ER %), Parainfluenza virus” value [13] was 97.56** % and the “antiviral effective rate (ER %), CoxA16” value [14] was 0.70%. The “antiviral effective rate (ER %), RSV” value [15] was 50.08* %, the “antiviral effective rate (ER %), HSV-I” value [16] was 62.92** % and the “antiviral effective rate (ER %), ADV” value [2] was 0.43%. For the same molecule, the “antiviral effective rate (ER %), EV71” value [3] was 4.25** %, the “antiviral effective rate (ER %), CVB3” value [4] was 13.44% and the “Hemagglutination titer (InX)” value ([8]; 58.5 mg/kg/d) was 21.13 ± 0.986. The “Hemagglutination titer (InX)” value ([9]; lung suspension, parainfluenza virus infected mice, 58.5 mg/kg/d, 5 days) was 26.73 ± 1.193.

— patent US9670224B2, “Forsythiaside sulfate and derivatives thereof, preparation method and application thereof” (priority 2013, dated 2017)
